Results on two compounds are retold here after patent EP0430037A2, “Process for producing 2-carbon-substituted carbapenem derivatives” (BANYU PHARMACEUTICAL CO., LTD., priority 1989, dated 1991).

Structures are written as SMILES.

In one data set the test system is S. aureus 209P NIHJ JC1. The experiment in a line: Antibacterial activities in vitro (agar plate dilution method). The class given is cell-based. The following applies: Staphylococcus aureus; Mueller Hinton agar, inoculum size 10⁶ CFU/mℓ, 37°C for 16 hours. On the procedure: (1) Antibacterial activities in vitro The antibacterial activities were measured by the following agar plate dilution method. One platinum loopful of each test microorganism incubated overnight in Mueller Hinton broth, was inoculated to Mueller Hinton agar (inoculum size: 10⁶ CFU/mℓ). Such a culture medium contained a test compound in a predetermined concentration.

The next data set concerns S. aureus 4970. Briefly: Protective effects against experimental infectious disease of mice. The following applies: Staphylococcus aureus, 4970, 96 h; oral administration one hour after inoculation of 5 x 10⁵ cells in 5% mucin; mortality four days later; eight mice per group; read-out: ED₅₀. Type of data set: in vivo, Male mice (ddY). On the procedure: (2) Protective effects against experimental infectious disease of mice
Male mice (ddY) of 4 weeks old having body weights of 20±1 g were employed, and the test was conducted with eight mice per group. Microorganism used: S. aureus 4970
5 x 10⁵ cells of the pathogenic microorganism suspended in 5% mucin were […] injected to each mouse. One hour after the inoculation of the microorganism, the compound of the present invention was orally administered in the form of solutions having various concentrations. Four days later, the mortality of the mice was determined, and the ED₅₀ value was calculated.

Data set [1] in a line: Concentration in blood and recovery rate in urine after oral administration (bioassay). Type of data set: in vivo, ddY male mice. The following applies: mouse, 40 mg/kg orally, mice, bioassay with S. lutea PC 11001, Example 26 quantified as its non-ester form (Example 25); for concentration at 0.25 h: read-out: Concentration in blood 0.25 hr later; for concentration at 0.5 h: read-out: Concentration in blood 0.5 hr later. How it is done: (3) Concentration in blood and recovery rate in urine
ddY male mice of 4 weeks old
40 mg/kg of the test compound was orally administered to each mouse, and the change with time of the concentration in blood and the recovery rate in urine for from 0 to 6 hours were measured. The quantitative analysis was conducted by a bioassay using S. lutea PC 11001 as the test microorganism. With respect to the compound of Example 26, the quantitative analysis was conducted in the form of its non-ester form i.e. as the compound of Example 25.

In the case of `C=C(C)C1=C(C(=O)O)N2C(=O)[C@H]([C@@H](C)O)[C@H]2[C@H]1C` [Example 25, Sodium (1S,5R,6S)-6-((1R)-1-hydroxyethyl)-2-(1-methylvinyl)-1-methylcarbapen-2-em-3-carboxylate], 0.05 µg/mL was the least that counted as inhibitory against S. aureus 209P NIHJ JC1 (MIC). In addition, the ED50 in the data set on S. aureus 4970 was 0.34 mg/kg. In data set [1] (blood), the concentration at 0.25 h turned out to be 4100 ng/mL and the concentration at 0.5 h amounted to 2900 ng/mL. For the same compound, the concentration at 1 h in data set [1] (blood, read-out: Concentration in blood 1 hr later) worked out at 1600 ng/mL. The same compound showed a dose excreted at 6 h in data set [1] (urine, 0-6 hrs) of 1.8%.
On to `C=C(C)C1=C(C(=O)OCOC(=O)C(C)(C)C)N2C(=O)[C@H]([C@@H](C)O)[C@H]2[C@H]1C` [Example 26, Pivaloyloxymethyl (1S,5R,6S)-6-((1R)-1-hydroxyethyl)-2-(1-methylvinyl)-1-methylcarbapen-2-em-3-carboxylate], for which the ED50 in the data set with S. aureus 4970 was determined as 0.36 mg/kg. In data set [1] (blood), the concentration at 0.25 h is 44900 ng/mL and the concentration at 0.5 h turned out to be 29100 ng/mL.
